Experimental data published in ChEMBL document CHEMBL2380312, “Discovery of the first histone deacetylase 6/8 dual inhibitors” (J Med Chem, 2013).
The source made the active and inactive calls. No cut-off for these calls is given here.

Columns and labels:
[1] = target: T1, Protein deacetylase HDAC6 (Homo sapiens, UniProt Q9UBN7); assay: Inhibition of HDAC6 (unknown origin) after 60 mins by fluorescence assay
T1 sequence (Q9UBN7 whole entry): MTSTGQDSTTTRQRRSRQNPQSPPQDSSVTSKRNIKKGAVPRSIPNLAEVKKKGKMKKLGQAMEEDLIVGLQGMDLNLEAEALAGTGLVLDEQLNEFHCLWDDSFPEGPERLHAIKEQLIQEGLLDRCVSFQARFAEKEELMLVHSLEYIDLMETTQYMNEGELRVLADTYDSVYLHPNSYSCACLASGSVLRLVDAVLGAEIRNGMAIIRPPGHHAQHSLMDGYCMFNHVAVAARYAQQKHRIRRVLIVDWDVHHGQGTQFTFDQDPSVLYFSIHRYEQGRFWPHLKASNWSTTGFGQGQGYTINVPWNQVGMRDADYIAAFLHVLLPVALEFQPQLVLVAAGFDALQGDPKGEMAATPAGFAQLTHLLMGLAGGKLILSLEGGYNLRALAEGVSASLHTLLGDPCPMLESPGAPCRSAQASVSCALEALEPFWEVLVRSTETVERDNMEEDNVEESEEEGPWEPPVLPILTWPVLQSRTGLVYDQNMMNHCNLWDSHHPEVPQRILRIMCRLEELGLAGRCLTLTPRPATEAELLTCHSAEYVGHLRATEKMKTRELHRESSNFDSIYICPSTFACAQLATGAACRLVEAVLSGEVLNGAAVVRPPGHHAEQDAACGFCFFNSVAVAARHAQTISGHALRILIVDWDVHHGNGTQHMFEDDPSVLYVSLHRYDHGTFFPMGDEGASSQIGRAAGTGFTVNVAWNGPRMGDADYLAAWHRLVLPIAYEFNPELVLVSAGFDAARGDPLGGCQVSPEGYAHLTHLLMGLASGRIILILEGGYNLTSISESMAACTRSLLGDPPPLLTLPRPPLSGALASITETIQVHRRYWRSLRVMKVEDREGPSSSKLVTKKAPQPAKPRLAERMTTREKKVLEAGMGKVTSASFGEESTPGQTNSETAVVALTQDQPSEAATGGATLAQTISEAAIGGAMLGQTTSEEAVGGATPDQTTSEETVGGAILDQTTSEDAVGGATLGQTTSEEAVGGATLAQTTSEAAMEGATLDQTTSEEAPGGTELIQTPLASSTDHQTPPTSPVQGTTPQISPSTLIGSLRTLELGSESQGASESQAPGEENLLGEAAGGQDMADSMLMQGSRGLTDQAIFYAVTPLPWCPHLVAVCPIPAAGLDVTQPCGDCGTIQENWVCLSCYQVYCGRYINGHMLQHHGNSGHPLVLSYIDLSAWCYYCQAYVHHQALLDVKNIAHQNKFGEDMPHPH

Histone deacetylase 2 [2] = target: T2, Histone deacetylase 2 (Homo sapiens, UniProt Q92769); assay: Inhibition of HDAC2 (unknown origin) after 60 mins by fluorescence assay
T2 sequence (Q92769 whole entry): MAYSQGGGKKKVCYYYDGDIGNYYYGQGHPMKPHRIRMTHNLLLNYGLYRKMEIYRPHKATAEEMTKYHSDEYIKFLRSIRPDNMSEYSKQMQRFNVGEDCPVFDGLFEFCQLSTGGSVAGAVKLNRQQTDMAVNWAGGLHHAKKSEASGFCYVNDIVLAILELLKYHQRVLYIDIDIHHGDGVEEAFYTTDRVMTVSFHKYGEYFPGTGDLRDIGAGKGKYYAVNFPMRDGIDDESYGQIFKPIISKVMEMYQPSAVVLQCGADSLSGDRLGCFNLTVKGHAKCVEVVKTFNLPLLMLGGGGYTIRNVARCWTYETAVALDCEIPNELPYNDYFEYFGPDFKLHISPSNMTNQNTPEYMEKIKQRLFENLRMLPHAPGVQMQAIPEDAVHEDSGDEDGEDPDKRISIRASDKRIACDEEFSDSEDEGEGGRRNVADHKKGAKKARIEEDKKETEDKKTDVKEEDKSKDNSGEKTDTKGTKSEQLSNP

Histone deacetylase 4 = Histone deacetylase 4 (Homo sapiens, UniProt P56524); assay: Inhibition of HDAC4 (unknown origin) after 60 mins by fluorescence assay
Sequence of Histone deacetylase 4 (P56524 whole entry): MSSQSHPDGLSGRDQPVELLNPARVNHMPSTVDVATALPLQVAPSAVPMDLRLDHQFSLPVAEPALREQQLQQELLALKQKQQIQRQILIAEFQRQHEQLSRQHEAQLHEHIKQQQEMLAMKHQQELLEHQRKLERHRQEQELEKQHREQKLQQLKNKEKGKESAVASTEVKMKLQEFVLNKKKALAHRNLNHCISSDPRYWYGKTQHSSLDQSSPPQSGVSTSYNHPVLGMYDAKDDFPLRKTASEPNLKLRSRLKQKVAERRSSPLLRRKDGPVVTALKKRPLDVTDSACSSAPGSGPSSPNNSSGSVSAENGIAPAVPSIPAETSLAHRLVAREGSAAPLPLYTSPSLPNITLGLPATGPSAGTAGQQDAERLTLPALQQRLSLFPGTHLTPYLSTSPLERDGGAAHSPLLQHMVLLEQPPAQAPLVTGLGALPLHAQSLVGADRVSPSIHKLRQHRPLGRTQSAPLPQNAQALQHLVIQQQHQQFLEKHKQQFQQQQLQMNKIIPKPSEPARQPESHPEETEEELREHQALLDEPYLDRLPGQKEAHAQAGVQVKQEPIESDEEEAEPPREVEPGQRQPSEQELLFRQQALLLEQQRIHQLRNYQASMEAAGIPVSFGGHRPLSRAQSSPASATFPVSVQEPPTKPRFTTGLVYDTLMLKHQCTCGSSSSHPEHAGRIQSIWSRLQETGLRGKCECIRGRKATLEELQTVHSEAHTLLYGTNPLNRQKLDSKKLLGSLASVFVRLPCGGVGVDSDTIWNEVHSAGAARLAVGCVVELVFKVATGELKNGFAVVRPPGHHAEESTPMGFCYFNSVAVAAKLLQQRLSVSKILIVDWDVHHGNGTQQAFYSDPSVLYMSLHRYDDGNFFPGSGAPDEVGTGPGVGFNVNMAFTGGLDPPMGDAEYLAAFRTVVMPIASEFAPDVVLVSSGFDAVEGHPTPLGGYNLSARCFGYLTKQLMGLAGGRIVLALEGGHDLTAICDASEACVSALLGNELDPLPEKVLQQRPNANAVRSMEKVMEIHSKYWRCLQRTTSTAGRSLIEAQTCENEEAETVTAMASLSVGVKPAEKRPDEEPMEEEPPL

Histone deacetylase 8 = target: T3, Histone deacetylase 8 (Homo sapiens, UniProt Q9BY41); assay: Inhibition of HDAC8 (unknown origin) after 60 mins by fluorescence assay
T3 sequence (Q9BY41 whole entry): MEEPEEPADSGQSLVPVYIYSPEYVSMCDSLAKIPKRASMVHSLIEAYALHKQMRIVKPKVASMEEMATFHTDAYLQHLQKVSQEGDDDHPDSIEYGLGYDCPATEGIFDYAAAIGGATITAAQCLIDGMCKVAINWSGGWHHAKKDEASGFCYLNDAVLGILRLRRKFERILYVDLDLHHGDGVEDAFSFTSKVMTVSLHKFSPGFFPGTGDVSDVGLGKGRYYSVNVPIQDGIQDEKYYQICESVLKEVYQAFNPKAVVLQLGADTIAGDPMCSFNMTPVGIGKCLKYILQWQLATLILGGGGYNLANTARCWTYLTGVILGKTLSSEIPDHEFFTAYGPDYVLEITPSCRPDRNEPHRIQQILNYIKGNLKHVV

Histone deacetylase 3 = Histone deacetylase 3 (Homo sapiens, UniProt O15379); assay: Inhibition of HDAC3 (unknown origin) after 60 mins by fluorescence assay
Sequence of Histone deacetylase 3 (O15379 whole entry): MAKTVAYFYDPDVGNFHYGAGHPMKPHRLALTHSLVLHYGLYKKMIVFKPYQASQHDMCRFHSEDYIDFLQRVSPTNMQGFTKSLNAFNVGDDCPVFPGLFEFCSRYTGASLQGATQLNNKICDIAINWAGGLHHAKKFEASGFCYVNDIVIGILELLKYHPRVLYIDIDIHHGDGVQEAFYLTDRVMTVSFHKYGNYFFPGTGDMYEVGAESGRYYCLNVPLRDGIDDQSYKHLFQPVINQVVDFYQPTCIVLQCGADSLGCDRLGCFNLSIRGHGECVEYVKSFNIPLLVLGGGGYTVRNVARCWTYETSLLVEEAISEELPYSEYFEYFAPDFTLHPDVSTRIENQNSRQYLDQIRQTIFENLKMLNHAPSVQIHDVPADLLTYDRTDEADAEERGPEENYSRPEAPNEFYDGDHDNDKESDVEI

Histone deacetylase 5 = Histone deacetylase 5 (Homo sapiens, UniProt Q9UQL6); assay: Inhibition of HDAC5 (unknown origin) after 60 mins by fluorescence assay
Sequence of Histone deacetylase 5 (Q9UQL6 whole entry): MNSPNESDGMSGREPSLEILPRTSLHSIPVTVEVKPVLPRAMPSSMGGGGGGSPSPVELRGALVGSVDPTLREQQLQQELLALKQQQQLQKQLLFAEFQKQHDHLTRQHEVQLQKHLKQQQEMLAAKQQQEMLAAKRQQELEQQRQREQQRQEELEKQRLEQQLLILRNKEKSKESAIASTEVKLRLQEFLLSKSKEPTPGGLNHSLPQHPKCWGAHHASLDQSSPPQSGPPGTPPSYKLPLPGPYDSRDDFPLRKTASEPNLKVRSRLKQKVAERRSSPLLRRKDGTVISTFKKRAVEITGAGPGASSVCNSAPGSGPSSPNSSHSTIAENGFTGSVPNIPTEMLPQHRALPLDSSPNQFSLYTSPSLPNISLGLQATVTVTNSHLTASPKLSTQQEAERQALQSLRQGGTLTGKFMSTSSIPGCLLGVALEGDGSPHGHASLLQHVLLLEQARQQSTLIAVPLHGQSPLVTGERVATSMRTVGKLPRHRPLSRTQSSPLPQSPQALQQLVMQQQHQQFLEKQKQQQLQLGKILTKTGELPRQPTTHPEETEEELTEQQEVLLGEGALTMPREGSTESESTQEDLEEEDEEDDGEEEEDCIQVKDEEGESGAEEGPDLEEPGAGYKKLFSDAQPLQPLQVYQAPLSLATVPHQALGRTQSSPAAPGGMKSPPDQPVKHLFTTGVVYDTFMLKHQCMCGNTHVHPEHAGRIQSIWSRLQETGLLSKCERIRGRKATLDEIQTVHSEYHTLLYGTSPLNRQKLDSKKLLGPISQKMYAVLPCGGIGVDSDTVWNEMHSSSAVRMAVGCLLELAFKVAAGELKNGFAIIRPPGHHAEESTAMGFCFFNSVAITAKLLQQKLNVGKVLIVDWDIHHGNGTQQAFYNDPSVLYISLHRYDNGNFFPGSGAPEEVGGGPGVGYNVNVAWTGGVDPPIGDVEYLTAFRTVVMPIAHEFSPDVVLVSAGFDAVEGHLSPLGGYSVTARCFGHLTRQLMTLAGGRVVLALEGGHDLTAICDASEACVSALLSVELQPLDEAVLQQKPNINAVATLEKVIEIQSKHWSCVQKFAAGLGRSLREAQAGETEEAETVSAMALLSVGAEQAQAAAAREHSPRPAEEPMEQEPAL

Histone deacetylase 2 [3] = target: T2, Histone deacetylase 2; details: HeLa, at 10 µM
Description: Inhibition of HDAC2 in human HeLa cells assessed as increase in histone H3 acetylation at 10 uM after 48 hrs by Western blotting analysis

Homo sapiens [4] = organism: Homo sapiens; assay: Selectivity ratio of IC50 for HDAC2 (unknown origin) to IC50 for HDAC8 (unknown origin)
Histone deacetylase 7 = target: T4, Histone deacetylase 7 (Homo sapiens, UniProt Q8WUI4); assay: Inhibition of HDAC7 (unknown origin) after 60 mins by fluorescence assay
T4 sequence (Q8WUI4 whole entry): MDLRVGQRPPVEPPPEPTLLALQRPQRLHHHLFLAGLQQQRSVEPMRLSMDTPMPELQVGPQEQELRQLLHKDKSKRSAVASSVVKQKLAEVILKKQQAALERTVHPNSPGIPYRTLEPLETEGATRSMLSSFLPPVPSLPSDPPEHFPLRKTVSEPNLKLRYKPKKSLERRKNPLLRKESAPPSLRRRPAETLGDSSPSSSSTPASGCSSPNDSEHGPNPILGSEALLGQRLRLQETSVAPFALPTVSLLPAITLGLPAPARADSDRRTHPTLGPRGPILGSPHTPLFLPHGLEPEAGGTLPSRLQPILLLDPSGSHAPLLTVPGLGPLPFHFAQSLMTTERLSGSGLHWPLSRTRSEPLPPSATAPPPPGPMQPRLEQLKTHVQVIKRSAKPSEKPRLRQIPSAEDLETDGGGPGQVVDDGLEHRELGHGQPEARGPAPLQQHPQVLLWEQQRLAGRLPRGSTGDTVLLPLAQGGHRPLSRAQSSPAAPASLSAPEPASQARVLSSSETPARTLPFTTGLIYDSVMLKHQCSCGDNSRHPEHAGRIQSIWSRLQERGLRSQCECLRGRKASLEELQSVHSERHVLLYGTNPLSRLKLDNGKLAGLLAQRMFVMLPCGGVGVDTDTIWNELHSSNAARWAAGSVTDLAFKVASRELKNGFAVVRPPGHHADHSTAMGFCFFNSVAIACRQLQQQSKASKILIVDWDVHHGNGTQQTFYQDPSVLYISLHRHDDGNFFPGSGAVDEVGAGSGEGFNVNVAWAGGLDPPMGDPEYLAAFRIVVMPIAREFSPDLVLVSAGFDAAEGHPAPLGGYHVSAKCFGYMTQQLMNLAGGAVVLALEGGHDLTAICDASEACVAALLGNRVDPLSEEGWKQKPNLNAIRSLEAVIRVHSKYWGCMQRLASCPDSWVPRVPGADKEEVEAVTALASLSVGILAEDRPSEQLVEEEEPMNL

Homo sapiens [5] = organism: Homo sapiens; assay: Selectivity ratio of IC50 for HDAC4 (unknown origin) to IC50 for HDAC8 (unknown origin)
Homo sapiens [6] = organism: Homo sapiens; assay: Selectivity ratio of IC50 for HDAC2 (unknown origin) to IC50 for HDAC6 (unknown origin)
Homo sapiens [7] = organism: Homo sapiens; assay: Selectivity ratio of IC50 for HDAC4 (unknown origin) to IC50 for HDAC6 (unknown origin)
Histone deacetylase 1 = Histone deacetylase 1 (Homo sapiens, UniProt Q13547); assay: Inhibition of HDAC1 (unknown origin) after 60 mins by fluorescence assay
Sequence of Histone deacetylase 1 (Q13547 whole entry): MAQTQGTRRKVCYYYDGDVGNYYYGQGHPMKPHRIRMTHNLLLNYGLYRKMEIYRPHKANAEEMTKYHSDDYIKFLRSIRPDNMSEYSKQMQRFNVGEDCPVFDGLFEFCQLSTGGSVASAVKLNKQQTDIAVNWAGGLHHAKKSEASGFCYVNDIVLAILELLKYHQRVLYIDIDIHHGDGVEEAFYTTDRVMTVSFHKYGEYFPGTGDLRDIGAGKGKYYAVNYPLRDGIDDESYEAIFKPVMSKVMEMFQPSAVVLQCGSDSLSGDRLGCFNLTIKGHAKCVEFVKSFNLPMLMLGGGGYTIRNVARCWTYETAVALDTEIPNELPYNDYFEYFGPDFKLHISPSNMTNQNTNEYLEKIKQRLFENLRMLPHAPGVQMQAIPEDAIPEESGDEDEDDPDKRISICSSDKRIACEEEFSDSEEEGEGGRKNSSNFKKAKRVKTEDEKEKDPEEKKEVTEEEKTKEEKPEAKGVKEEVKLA

Histone deacetylase 9 = Histone deacetylase 9 (Homo sapiens, UniProt Q9UKV0); assay: Inhibition of HDAC9 (unknown origin) after 60 mins by fluorescence assay
Sequence of Histone deacetylase 9 (Q9UKV0 whole entry): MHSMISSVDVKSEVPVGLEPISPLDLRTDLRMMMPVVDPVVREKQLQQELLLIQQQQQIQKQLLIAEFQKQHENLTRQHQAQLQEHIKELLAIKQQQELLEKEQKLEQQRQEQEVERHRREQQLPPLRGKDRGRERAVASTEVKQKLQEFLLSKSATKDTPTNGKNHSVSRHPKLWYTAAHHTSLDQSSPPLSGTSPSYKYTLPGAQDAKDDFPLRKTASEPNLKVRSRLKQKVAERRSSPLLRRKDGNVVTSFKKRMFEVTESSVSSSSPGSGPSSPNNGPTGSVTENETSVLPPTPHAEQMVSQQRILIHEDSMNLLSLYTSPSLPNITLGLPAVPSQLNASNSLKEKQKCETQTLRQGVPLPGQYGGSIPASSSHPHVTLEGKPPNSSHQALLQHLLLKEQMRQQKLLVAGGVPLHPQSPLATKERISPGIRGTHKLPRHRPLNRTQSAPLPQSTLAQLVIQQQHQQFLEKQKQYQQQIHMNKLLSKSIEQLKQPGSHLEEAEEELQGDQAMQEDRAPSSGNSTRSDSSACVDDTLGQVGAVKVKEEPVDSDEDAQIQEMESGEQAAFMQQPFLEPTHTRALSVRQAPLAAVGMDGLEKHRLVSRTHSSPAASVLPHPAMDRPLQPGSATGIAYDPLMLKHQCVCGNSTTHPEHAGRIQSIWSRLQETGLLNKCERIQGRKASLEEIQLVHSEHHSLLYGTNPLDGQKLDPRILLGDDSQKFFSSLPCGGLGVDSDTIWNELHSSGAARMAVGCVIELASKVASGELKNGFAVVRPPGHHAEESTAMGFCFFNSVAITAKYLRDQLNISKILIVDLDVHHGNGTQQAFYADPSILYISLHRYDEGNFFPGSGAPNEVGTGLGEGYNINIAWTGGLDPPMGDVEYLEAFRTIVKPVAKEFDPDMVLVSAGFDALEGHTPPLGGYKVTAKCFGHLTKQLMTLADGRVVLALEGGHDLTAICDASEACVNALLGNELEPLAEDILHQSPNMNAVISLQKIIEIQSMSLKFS

| IC50 [1] | IC50 (Histone deacetylase 2 [2]) | IC50 (Histone deacetylase 4) | IC50 (Histone deacetylase 8) | IC50 (Histone deacetylase 3) | IC50 (Histone deacetylase 5) | inhibition (Histone deacetylase 2 [3]) | Ratio IC50 (Homo sapiens [4]) | IC50 (Histone deacetylase 7) | Ratio IC50 (Homo sapiens [5]) | Ratio IC50 (Homo sapiens [6]) | Ratio IC50 (Homo sapiens [7]) | IC50 (Histone deacetylase 1) | IC50 (Histone deacetylase 9) | Compound |
| --- | --- | --- | --- | --- | --- | --- | --- | --- | --- | --- | --- | --- | --- | --- |
| 0.021 µM | 4.8 µM | 14 µM | 0.037 µM | 18 µM | 26 µM | Active | > 130 | 8.4 µM | > 130 | > 130 | > 130 | 6.1 µM | 12 µM | O=C(/C=C/c1cccc(C(=O)NO)c1)Nc1ccccc1 |
|  |  | > 33 µM |  |  |  |  |  |  |  |  |  |  |  | O=C(NO)c1cccc(C(=O)Nc2ccccc2)c1 |
| 0.059 µM | 20 µM | > 33 µM | 0.42 µM |  |  |  |  |  |  |  |  |  |  | O=C(NO)c1cccc(C(=O)NCCc2cccnc2)c1 |
|  | 9 µM |  |  | 23 µM | > 33 µM | Active |  |  |  |  |  | 12 µM | > 33 µM | O=C(NO)c1cccc(C(=O)NCCc2ccccc2)c1 |

More lines, now with the values behind:

| Compound | IC50 [1] | IC50 (Histone deacetylase 2 [2]) | IC50 (Histone deacetylase 4) | IC50 (Histone deacetylase 8) | IC50 (Histone deacetylase 3) | IC50 (Histone deacetylase 5) | inhibition (Histone deacetylase 2 [3]) | Ratio IC50 (Homo sapiens [4]) | IC50 (Histone deacetylase 7) | Ratio IC50 (Homo sapiens [5]) | Ratio IC50 (Homo sapiens [6]) | Ratio IC50 (Homo sapiens [7]) | IC50 (Histone deacetylase 1) | IC50 (Histone deacetylase 9) |
| --- | --- | --- | --- | --- | --- | --- | --- | --- | --- | --- | --- | --- | --- | --- |
| O=C(NO)c1cccc(CNc2ccccc2)c1 | 1.3 µM | > 33 µM | > 33 µM | 1.7 µM |  |  |  |  |  |  |  |  |  |  |
| Cc1cccc(C(=O)NO)c1 | 0.65 µM | > 33 µM | > 33 µM | 3.3 µM |  |  |  |  |  |  |  |  |  |  |
| CNC(=O)c1cccc(C(=O)NO)c1 | 2.5 µM | > 33 µM | > 33 µM | 14 µM |  |  |  |  |  |  |  |  |  |  |
| O=C(NO)c1cccc(C(=O)NCc2ccccc2)c1 | 0.034 µM | 11 µM | > 33 µM | 0.21 µM |  |  |  | > 50 |  | > 50 | > 50 | > 50 |  |  |
